Reference: article PMC3035770 (Biochemistry, 2011)
Where two headings read alike, the source gives them in different places.

Tests used:
[1] = target: T1, PKR (double-stranded RNA-activated protein kinase) (Homo sapiens, UniProt P19525); assay: radiolabeled ATP binding, ZipTip-C4 separation
[2] = target: T1, PKR (double-stranded RNA-activated protein kinase); assay: fluorescence polarization, direct titration; type: binding
[3] = target: bovine serum albumin (BSA) (Bos taurus, UniProt P02769); assay: fluorescence polarization, direct titration; type: binding
Chain of bovine serum albumin (BSA) (P02769 25-607): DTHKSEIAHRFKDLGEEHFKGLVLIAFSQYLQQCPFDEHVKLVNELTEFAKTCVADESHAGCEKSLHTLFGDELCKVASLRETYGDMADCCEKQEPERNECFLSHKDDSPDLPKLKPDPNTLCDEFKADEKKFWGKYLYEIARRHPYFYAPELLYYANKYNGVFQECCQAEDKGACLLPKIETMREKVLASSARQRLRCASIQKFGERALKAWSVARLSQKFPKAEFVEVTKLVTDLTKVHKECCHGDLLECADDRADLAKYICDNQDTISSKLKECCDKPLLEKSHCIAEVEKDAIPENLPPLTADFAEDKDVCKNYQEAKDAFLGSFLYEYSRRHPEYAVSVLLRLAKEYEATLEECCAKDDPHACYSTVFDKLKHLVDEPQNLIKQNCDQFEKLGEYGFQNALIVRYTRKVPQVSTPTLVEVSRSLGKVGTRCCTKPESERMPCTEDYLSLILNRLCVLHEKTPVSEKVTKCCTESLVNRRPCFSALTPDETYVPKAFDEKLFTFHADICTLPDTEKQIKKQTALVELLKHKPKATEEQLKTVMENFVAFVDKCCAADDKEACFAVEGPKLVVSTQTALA

PKR (Homo sapiens) [4] = target: PKR (Homo sapiens) (UniProt P19525); settings: cited from earlier work
PKR (Homo sapiens) [5] = target: PKR (Homo sapiens) (UniProt P19525); settings: cited from earlier work; remark: listed apart in the source
PKR (Homo sapiens) [6] = target: PKR (Homo sapiens) (UniProt P19525); settings: cited from earlier work; remark: listed apart in the source

Compound: Nc1ncnc2c1ncn2[C@@H]1O[C@H](COP(=O)(O)OP(=O)(O)OP(=O)(O)O)[C@@H](O)[C@H]1O [ATP]
- % bound [1]: 16.61 % bound

Compound: CC1=CC(C)=[N+]2C1=Cc1ccc(CCCCCCCCCCCCCCCC(=O)O)n1[B-]2(F)F [Bodipy-C16, 4,4-difluoro-5,7-dimethyl-4-bora-3a,4a-diaza-s-indacene-3-hexadecanoic acid]
- Kd [2]: 0.0232 ± 0.00128 µM
- Kd [3]: 0.0292 ± 0.00185 µM

Compound: PKR (from UniProt P19525)
- Kd (PKR (Homo sapiens) [4]): 500 µM
- Kd (PKR (Homo sapiens) [5]): 20 µM
- Kd (PKR (Homo sapiens) [6]): 75 µM
